Laboratory results published in ChEMBL document CHEMBL3784971, “Synthesis, characterization, antimicrobial and biofilm inhibitory studies of new esterquats” (Bioorg Med Chem Lett, 2016).

Columns and labels:
Type in all cases: functional
Staphylococcus aureus [1] = assay: Antimicrobial activity against Staphylococcus aureus MTCC 96 assessed as growth inhibition after 24 hrs by agar well diffusion method; settings: MTCC 96, 24 h
Bacillus subtilis [2] = assay: Antimicrobial activity against Bacillus subtilis MTCC 121 assessed as growth inhibition after 24 hrs by agar well diffusion method; settings: MTCC 121, 24 h
Staphylococcus aureus [3] = assay: Antimicrobial activity against Staphylococcus aureus MLS16 MTCC 2940 assessed as growth inhibition after 24 hrs by agar well diffusion method; settings: MLS16 MTCC 2940, 24 h
Micrococcus luteus [4] = assay: Antimicrobial activity against Micrococcus luteus MTCC 2470 assessed as growth inhibition after 24 hrs by agar well diffusion method; settings: MTCC 2470, 24 h
Raoultella planticola [5] = assay: Antimicrobial activity against Klebsiella planticola MTCC 530 assessed as growth inhibition after 24 hrs by agar well diffusion method; settings: MTCC 530, 24 h
Escherichia coli [6] = assay: Antimicrobial activity against Escherichia coli MTCC 739 assessed as growth inhibition after 24 hrs by agar well diffusion method; settings: MTCC 739, 24 h
Pseudomonas aeruginosa = assay: Antimicrobial activity against Pseudomonas aeruginosa MTCC 2453 assessed as growth inhibition after 24 hrs by agar well diffusion method; settings: MTCC 2453, 24 h
Candida albicans = assay: Antimicrobial activity against Candida albicans MTCC 3017 assessed as growth inhibition after 24 hrs by agar well diffusion method; settings: MTCC 3017, 24 h
Staphylococcus aureus [7] = assay: Bactericidal activity against Staphylococcus aureus MTCC 96 after 24 hrs by serial dilution method; settings: MTCC 96, 24 h
Bacillus subtilis [8] = assay: Bactericidal activity against Bacillus subtilis MTCC 121 after 24 hrs by serial dilution method; settings: MTCC 121, 24 h
Staphylococcus aureus [9] = assay: Bactericidal activity against Staphylococcus aureus MLS16 MTCC 2940 after 24 hrs by serial dilution method; settings: MLS16 MTCC 2940, 24 h
Micrococcus luteus [10] = assay: Bactericidal activity against Micrococcus luteus MTCC 2470 after 24 hrs by serial dilution method; settings: MTCC 2470, 24 h
Raoultella planticola [11] = assay: Bactericidal activity against Klebsiella planticola MTCC 530 after 24 hrs by serial dilution method; settings: MTCC 530, 24 h
Escherichia coli [12] = assay: Bactericidal activity against Escherichia coli MTCC 739 after 24 hrs by serial dilution method; settings: MTCC 739, 24 h

CCCCCCCCCCCCN(CCCCCCCCCCC(=O)OC)CCCCCCCCCCC(=O)OC
> 125 µg/mL: MIC (Staphylococcus aureus [1]) | MIC (Bacillus subtilis [2]) | MIC (Staphylococcus aureus [3]) | MIC (Micrococcus luteus [4]) | MIC (Raoultella planticola [5]) | MIC (Escherichia coli [6]) | MIC (Pseudomonas aeruginosa) | MIC (Candida albicans) | MBC (Staphylococcus aureus [7]) | MBC (Bacillus subtilis [8]) | MBC (Staphylococcus aureus [9]) | MBC (Micrococcus luteus [10]) | MBC (Raoultella planticola [11]) | MBC (Escherichia coli [12])
